{"source": "patent US20240350456A1", "about": "“COMPOSITIONS AND METHODS FOR DIAGNOSING AND TREATING INFLAMMATORY CONDITIONS” (RUTGERS, THE STATE UNIVERSITY OF NEW JERSEY, priority 2023, published 2024)", "key": {"[1]": {"tested_on": "mouse intestinal organoids", "assay": "Organoid permeability assay with 4 kDa FITC-dextran, LPS with or without metabolites", "assay_type": "cell-based", "details": "ex vivo organoids", "procedure": "Intestinal organoids were isolated as previously described (Das et al., 2015; Pearce et al., 2018). Briefly, crypts were isolated from small intestine of conventional house C57BL/6 male mice (Taconic Laboratories, Hudson, NY) by shaking in isolation buffer (2 mM EDTA in PBS), then, crypts were harvested, processed, and suspended in crypt culture medium (CCM), which consisted of advanced DMEM/F12 (Life Technologies, Carlsbad, CA) supplemented with serum-free B27 (1:50; Life Technologies), N2 (1:100; Life Technologies), N-acetylcysteine (1 mM; Sigma-Aldrich, St. Louis, MO), recombinant murine epithelial growth factor (EGF, 50 ng/ml; Peprotech, Rocky Hill, NJ), Noggin (100 ng/ml; Peprotech), R-Spondin (500 ng/ml; Peprotech), Glutamax-I supplement (1:100; Life Technologies), penicillin/streptomycin (500 μg/ml; Life Technologies), and HEPES ([…]; Life Technologies). Crypts were resuspended in 70% Matrigel (density ˜450 crypts per dome, 2 domes per well in 24-well plate) and allowed to solidify at 37° C. for 20 min. CCM (1.5 mL) was then added to each well. Cultures were incubated in a humidified incubator at 37° C., and CCM was changed daily. Intestinal organoid treatment with LPS and metabolites\n(§1) We had 2 series of metabolite-treated organoid experiments, i.e., 1) organoid from conventional C57BL6 mice and 2) Ocln KO and littermate WT control as a gift from Prof. Jerrold Turner (Harvard University). […] Seeding is designated as day 0. On day 3 of culture, the existing media in the wells were completely removed before adding treatments. LPS (1 μg/mL) with or without metabolites, i.e., IPA (0.1 mM) (Li et al., 2021), IAM (200 μM) (Vyhlidalova et al., 2020), MNA (12 ng/ml) (Liu et al., 2015), CARN (20 mM) (Boldyrev et al., 2013) or ASA (1 μM) (Erez et al., 2011) were each added in CCM at known physiological concentrations, incubated for 48 hours, thereafter, organoid was harvested for RNA extraction, and paraformaldehyde fixation for immunostaining.\nPermeability assays followed earlier work (Pearce et al., 2018). Briefly, all media were removed and then organoid were incubated with CCM containing 4 kDa FITC-dextran (Sigma-Aldrich, St. Louis, MO, Cat. #46944) at a final concentration of 1.25 µM for 30 minutes at 37° C. and at 5% CO2. […] A fluorescent microscope (Nikon Eclipse TI, NY) at a 10× magnification was used to observe and capture the fluorescence within the lumen of the organoids. Using the same area as the lumen, three different background samples are measured randomly around the lumen. The three background samples measured are averaged and then subtracted from the measured fluorescence of the lumen. […] The quantification of the fluorescence was conducted using the ImageJ 1.53 (NIH, Bethesda, MD)."}, "[2]": {"tested_on": "Tff3 and Lyz1 (goblet and Paneth cells)", "assay": "Organoids: goblet and Paneth cell transcripts (Tff3, Lyz1) and cell numbers", "assay_type": "cell-based, mouse", "details": "enteroids", "procedure": "as §1\nTotal RNA was extracted from the intestinal organoids using a commercially available kit (RNeasy Microkit; Qiagen, MD, Cat. #74004) following manufacturer's instructions. mRNA samples were converted to cDNA using Bio-Rad's iScript Reverse Transcription Supermix for RT-qPCR (Bio-Rad Laboratories, Hercules, CA, Cat. #1708840). cDNA was then used for RT-qPCR (Mx3000P. Stratagene, La Jolla, CA) to analyze several genes using Maxima SYBR Green qPCR Master Mix (Thermo Fisher Scientific, Waltham, MA) and primers (Integrated DNA Technologies, Coralville, IA). Thermal profile for three-step cycling was 10 min at 95° C. for initial denaturation; then 40 cycles of 15 sec at 95° C. for denaturation, 30 sec at 65° C. for annealing, and 30 sec at 75° C. for extension. Primers used are as follows: β-actin (Actb), forward 5′-[…]-3′ (SEQ ID NO: 5), reverse 5′-[…]-3′ (SEQ ID NO: 6); ZO-1 (Tjp1), forward 5′-[…]-3′ (SEQ ID NO: 7), reverse 5′-[…]-3′ (SEQ ID NO: 8), Ocln, forward 5′-[…]-3′ (SEQ ID NO: 9), reverse 5′-[…]-3′ (SEQ ID NO: 10); Lyz1, forward 5′-ATGGCTACCGTGGTGTCAAG-3′ (SEQ ID NO: 11), reverse 5′-CGGTCTCCACGGTTGTAGTT-3′ (SEQ ID NO: 12); Tff3, forward 5′-TAATGCTGTTGGTGGTCCTG-3′ (SEQ ID NO: 13), reverse 5′-CAGCCACGGTTGTTACACTG-3′ (SEQ ID NO: 14). All samples were normalized to β actin expression. Gene expression levels are depicted as fold change relative to the control group.\nImmunocytochemistry followed earlier work (Pearce et al., 2018). Briefly, organoids were extracted from Matrigel by using cell recovery solution (Corning, Cat. No. 354253), processed then fixed in 4% paraformaldehyde for 15 min and dehydrated with 70% ethanol and kept in 4° C. until embedded in paraffin. On the day of embedding, organoids were gently spun down to a pellet (250 g for 5 min), then the supernatant was removed, the pellet resuspended in agarose and embedded in paraffin. […]"}, "Caco2 BBE monolayer": {"tested_on": "Caco2 BBE monolayer", "assay": "TEER of confluent Caco2 BBE monolayer disrupted by luminal DSS, with MNA", "assay_type": "cell-based, human", "details": "low dose", "method": "MNA was applied from Day-5 at different concentrations on the luminal (L) or basolateral (BL) compartments. The monolayer was disrupted by 3% DSS in the luminal side on days 5-8.\nCaco2 were provided with MNA at day 0 either luminally (L, mimics oral) or basolaterally (BL, mimics intra-peritoneal) (FIG. 17). Then DSS was added to lumen to disrupt gut barrier in all treatments except control (blue circles)."}}, "data": [{"smiles": "C[n+]1cccc(C(N)=O)c1", "note": "[Methylnicotinamide, 1-methynicotinamide]", "values": [{"measurement": "disruption of the gut barrier, fluorescence microscopy (FIG. 11M)", "setting": "[1]", "value": "prevented disruption of the gut barrier"}, {"measurement": "goblet and Paneth cell transcripts and cell numbers", "setting": "[2]", "value": "reduced goblet and Paneth cell transcripts as well as cell numbers"}, {"measurement": "TEER after DSS barrier disruption", "setting": "Caco2 BBE monolayer", "value": "prevented barrier disruption"}]}, {"smiles": "NC(=O)Cc1c[nH]c2ccccc12", "note": "[Indole-3-acetamide, indole-3-acetamide]", "values": [{"measurement": "disruption of the gut barrier, fluorescence microscopy (FIG. 11M)", "setting": "[1]", "value": "prevented disruption of the gut barrier"}, {"measurement": "goblet and Paneth cell transcripts and cell numbers", "setting": "[2]", "value": "reduced goblet and Paneth cell transcripts as well as cell numbers"}]}]}
